Results reported in ChEMBL document CHEMBL1148215, “Lipoxygenase inhibitory constituents from Periploca aphylla” (J Nat Prod, 2004).
pIC50: −log10 of the molar value.

assay: Inhibition of Lipoxygenase 1B

| SMILES | pIC50 |
| --- | --- |
| CC(C)(O)/C=C/C1=CC(=O)[C@H](O)C[C@]1(C)O | 3.82 |
| Oc1cc(O)c2c(c1)O[C@H](c1ccc(O)c(Oc3cc([C@H]4Oc5cc(O)cc(O)c5C[C@@H]4O)ccc3O)c1)[C@@H](O)C2 | 4.71 |
| Oc1cc(O)c2c(c1)O[C@H](c1ccc(O)c(Oc3cc(O)c4c(c3)O[C@H](c3ccc(O)c(O)c3)[C@H](O)C4)c1)[C@H](O)C2 | 4.87 |
| O=c1cc(-c2ccccc2)oc2cc(O)c(O)c(O)c12 [BAICALEIN] | 4.65 |
